Test results reported in patent publication US12427187B2, “Glucose-responsive insulin conjugates” (priority 2019, dated 2025).
Read-outs that look alike come from different tables or passages of the source.

Tests used:
[1] = molecular target: human IR(B) (Homo sapiens, UniProt P06213); experiment: Insulin receptor phosphorylation assay (MSD pIR); assay type: cell-based; settings: CHO cells expressing human IR(B), IP = inflection point, read-out: IR Activation IP
Procedure: CHO cells stably expressing human IR(B) were in grown in F12 cell media containing 10% FBS and antibiotics (G418, Penicillin/Strepavidin) for at least 8 hr, and then serum starved by switching to F12 media containing 0.5% BSA (insulin-free) in place of FBS for overnight growth. Cells were harvested and frozen in aliquots for use in the MSD pIR assay. Briefly, the frozen cells were plated in either 96-well (40,000 cells/well, Methods A) or 384-well (10,000 cells/well, Method B) clear tissue culture plates and allowed to recover. IOC molecules at the appropriate concentrations were added and the cells incubated for 8 min at 37° C. The media was aspirated and chilled MSD cell lysis buffer was added as per MSD kit instructions. The cells were lysed on ice for 40 min and the lysate then mixed for 10 min at rt. The lysate was transferred to the MSD kit pIR detection plates. The remainder of the assay was carried out following the MSD kit recommended protocol.
The in vitro biological activities towards insulin receptor (IR) were measured by either ligand competition assays or functional phosphorylation assays, as described above, labeled as following: Method A: IR phosphorylation assay based on 96-well; Method B: IR phosphorylation assay based on 384-well with automated liquid dispense; Method C: cell-based IR binding assay; Method D: SPA IR binding assay method E; Method E: MRC1 assay was performed in a 96-well plate; Method F: MRC1 assay was performed in a 384-well plate.

[2] = molecular target: T1, Human macrophage mannose receptor 1 (MRC1) (Homo sapiens, UniProt P22897); experiment: MRC1 competition binding assay with Eu-mannosylated-BSA; settings: IP = inflection point
T1 sequence (P22897 19-1456): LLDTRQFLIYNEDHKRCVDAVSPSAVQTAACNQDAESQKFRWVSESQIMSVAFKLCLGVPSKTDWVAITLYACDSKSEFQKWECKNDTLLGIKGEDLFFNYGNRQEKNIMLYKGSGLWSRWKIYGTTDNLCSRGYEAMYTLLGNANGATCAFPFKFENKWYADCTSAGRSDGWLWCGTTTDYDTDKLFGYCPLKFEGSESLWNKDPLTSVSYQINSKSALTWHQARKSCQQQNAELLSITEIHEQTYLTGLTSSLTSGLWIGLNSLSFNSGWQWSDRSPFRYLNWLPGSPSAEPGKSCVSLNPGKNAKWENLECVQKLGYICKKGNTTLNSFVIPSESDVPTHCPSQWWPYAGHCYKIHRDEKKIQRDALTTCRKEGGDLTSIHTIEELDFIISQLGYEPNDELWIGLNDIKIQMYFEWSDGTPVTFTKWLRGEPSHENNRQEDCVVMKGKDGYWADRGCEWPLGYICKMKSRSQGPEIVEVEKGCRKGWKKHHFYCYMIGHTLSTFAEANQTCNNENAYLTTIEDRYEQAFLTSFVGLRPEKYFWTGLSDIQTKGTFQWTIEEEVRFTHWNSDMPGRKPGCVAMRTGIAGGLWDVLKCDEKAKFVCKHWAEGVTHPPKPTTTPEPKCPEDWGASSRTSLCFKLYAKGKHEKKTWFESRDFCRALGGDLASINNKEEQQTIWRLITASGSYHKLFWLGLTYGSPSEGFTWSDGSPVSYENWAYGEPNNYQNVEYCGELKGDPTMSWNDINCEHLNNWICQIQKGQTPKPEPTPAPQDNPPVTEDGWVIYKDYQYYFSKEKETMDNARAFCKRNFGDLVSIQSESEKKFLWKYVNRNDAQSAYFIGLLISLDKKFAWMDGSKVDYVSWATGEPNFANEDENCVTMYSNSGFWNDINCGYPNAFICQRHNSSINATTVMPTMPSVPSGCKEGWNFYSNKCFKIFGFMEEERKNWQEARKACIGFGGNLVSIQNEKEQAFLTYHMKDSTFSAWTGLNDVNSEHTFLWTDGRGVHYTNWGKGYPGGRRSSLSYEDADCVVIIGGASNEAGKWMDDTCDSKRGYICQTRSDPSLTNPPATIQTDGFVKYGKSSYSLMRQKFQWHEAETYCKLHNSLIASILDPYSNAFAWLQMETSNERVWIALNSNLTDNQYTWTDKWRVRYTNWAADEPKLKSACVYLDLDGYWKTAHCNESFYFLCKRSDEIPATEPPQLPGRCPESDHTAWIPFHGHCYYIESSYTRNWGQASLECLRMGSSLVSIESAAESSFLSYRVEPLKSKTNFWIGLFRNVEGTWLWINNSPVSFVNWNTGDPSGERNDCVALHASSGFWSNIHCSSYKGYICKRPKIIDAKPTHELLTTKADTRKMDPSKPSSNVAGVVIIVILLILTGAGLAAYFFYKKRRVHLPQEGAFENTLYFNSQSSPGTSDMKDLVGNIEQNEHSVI

[3] = Method B: IR phosphorylation assay, 384-well with automated liquid dispense
[4] = Method F: 384-well plate, read-out: MRC1 Binding IP
[5] = Method E: 96-well plate, read-out: MRC1 Binding IP
[6] = Method A: IR phosphorylation assay, 96-well

Sequence of human IR(B) (P06213 28-758 limits assumed): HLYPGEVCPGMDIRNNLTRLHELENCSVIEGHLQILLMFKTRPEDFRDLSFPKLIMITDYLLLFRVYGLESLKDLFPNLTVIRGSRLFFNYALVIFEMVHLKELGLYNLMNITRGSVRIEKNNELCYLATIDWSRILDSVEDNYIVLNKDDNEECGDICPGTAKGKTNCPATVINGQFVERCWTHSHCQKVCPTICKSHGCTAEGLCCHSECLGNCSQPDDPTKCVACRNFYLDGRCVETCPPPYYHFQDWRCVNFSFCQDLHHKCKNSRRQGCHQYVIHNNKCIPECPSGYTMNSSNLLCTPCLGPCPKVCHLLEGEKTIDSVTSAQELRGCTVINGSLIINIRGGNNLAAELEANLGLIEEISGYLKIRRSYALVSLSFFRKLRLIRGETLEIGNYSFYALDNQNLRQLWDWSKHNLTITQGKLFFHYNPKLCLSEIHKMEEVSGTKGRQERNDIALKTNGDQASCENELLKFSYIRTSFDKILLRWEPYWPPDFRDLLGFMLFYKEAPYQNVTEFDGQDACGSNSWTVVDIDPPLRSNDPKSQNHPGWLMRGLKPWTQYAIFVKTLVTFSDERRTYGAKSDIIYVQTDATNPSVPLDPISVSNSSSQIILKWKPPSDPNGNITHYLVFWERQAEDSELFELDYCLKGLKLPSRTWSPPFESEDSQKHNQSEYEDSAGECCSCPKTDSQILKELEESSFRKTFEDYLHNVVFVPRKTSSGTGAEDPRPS
Sequence of human IR(B) (P06213 763-1382 partner limits assumed): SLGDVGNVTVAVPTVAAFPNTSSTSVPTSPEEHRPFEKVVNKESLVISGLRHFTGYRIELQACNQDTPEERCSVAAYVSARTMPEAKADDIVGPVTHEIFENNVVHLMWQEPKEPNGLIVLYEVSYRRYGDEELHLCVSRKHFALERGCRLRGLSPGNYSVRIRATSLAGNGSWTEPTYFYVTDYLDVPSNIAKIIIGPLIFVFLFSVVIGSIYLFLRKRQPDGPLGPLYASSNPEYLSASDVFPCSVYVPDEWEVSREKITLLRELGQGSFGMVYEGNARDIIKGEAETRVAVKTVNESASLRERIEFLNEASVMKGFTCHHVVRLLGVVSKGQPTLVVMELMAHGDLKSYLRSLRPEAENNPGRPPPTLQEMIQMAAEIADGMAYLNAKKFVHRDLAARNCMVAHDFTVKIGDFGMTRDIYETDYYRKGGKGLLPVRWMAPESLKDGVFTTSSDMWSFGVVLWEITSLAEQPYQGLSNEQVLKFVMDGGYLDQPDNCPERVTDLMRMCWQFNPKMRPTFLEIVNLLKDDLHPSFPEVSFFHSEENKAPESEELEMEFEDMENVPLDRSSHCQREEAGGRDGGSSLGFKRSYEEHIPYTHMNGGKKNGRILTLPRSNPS

| Compound | EC50 [1, 3] [nM] | IC50 [2, 4] [nM] | IC50 [2, 5] [nM] | other results |
| --- | --- | --- | --- | --- |
| CC(=O)[C@H](CCCCN)NC(=O)CCCCCNC(=O)[C@H](CCCCNC(=O)CCCCCNC(=O)CN(CC(=O)NCCO[C@@H]1O[C@@H](C)[C@@H](O)[C@@H](O)[C@@H]1O)CC(=O)N(CCOC1C[C@H](CO)[C@@H](O)[C@H](O)[C@@H]1O)CCOC1O[C@H](CO)[C@@H](O)[C@H](O)[C@@H]1O)NC(=O)[C@H](CCCCNC(=O)CCCCCNC(=O)CN(CC(=O)NCCO[C@@H]1O[C@@H](C)[C@@H](O)[C@@H](O)[C@@H]1O)CC(=O)N(CCOC1C[C@H](CO)[C@@H](O)[C@H](O)[C@@H]1O)CCOC1O[C@H](CO)[C@@H](O)[C@H](O)[C@@H]1O)NC(=O)CCCCCNC(=O)CN(CC(=O)NCCO[C@@H]1O[C@@H](C)[C@@H](O)[C@@H](O)[C@@H]1O)CC(=O)N(CCOC1O[C@H](CO)[C@@H](O)[C@H](O)[C@@H]1O)CCOC1O[C@H](CO)[C@@H](O)[C@H](O)[C@@H]1O (stereo partly drawn) [IOC-59] | 1.98 | 2.58 | – | – |
| CC(=O)[C@H](CCCCN)NC(=O)CCCCCNC(=O)[C@H](CCCCNC(=O)CCCCCNC(=O)CN(CC(=O)N(CCOC1O[C@H](CO)[C@@H](O)[C@H](O)[C@@H]1O)CCOC1O[C@H](CO)[C@@H](O)[C@H](O)[C@@H]1O)CC(=O)N(CCOC1O[C@H](CO)[C@@H](O)[C@H](O)[C@@H]1O)CCOC1O[C@H](CO)[C@@H](O)[C@H](O)[C@@H]1O)NC(=O)[C@H](CCCCNC(=O)CCCCCNC(=O)CN(CC(=O)N(CCOC1O[C@H](CO)[C@@H](O)[C@H](O)[C@@H]1O)CCOC1O[C@H](CO)[C@@H](O)[C@H](O)[C@@H]1O)CC(=O)N(CCOC1O[C@H](CO)[C@@H](O)[C@H](O)[C@@H]1O)CCOC1O[C@H](CO)[C@@H](O)[C@H](O)[C@@H]1O)NC(=O)CCCCCNC(=O)CN(CC(=O)N(CCOC1O[C@H](CO)[C@@H](O)[C@H](O)[C@@H]1O)CCOC1O[C@H](CO)[C@@H](O)[C@H](O)[C@@H]1O)CC(=O)N(CCOC1O[C@H](CO)[C@@H](O)[C@H](O)[C@@H]1O)CCOC1O[C@H](CO)[C@@H](O)[C@H](O)[C@@H]1O (stereo partly drawn) [IOC-61] | 1.12 | – | 1.89 | – |
| CC(=O)[C@H](CCCCN)NC(=O)[C@H](CCCCNC(=O)CCCCC(=O)N(CCOC1O[C@H](CO)[C@@H](O)[C@H](O)[C@@H]1O)CCOC1O[C@H](CO)[C@@H](O)[C@H](O)[C@@H]1O)NC(=O)[C@H](CCCNC(=O)CCCCC(=O)N(CCOC1O[C@H](CO)[C@@H](O)[C@H](O)[C@@H]1O)CCOC1O[C@H](CO)[C@@H](O)[C@H](O)[C@@H]1O)NC(=O)CCCCC(=O)N(CCOC1O[C@H](CO)[C@@H](O)[C@H](O)[C@@H]1O)CCOC1O[C@H](CO)[C@@H](O)[C@H](O)[C@@H]1O (stereo partly drawn) [IOC-44] | – | – | 31.3 | EC50 [1, 6]: 8.4 nM |
| CC(=O)[C@H](CCCCN)NC(=O)CCCCC(=O)N[C@@H](CCC(=O)NCCO[C@@H]1O[C@@H](C)[C@@H](O)[C@@H](O)[C@@H]1O)C(=O)N[C@@H](CCC(=O)NCCO[C@@H]1O[C@@H](C)[C@@H](O)[C@@H](O)[C@@H]1O)C(=O)N[C@@H](CCC(=O)NCCO[C@@H]1O[C@@H](C)[C@@H](O)[C@@H](O)[C@@H]1O)C(=O)NCCO[C@@H]1O[C@@H](C)[C@@H](O)[C@@H](O)[C@@H]1O [IOC-19] | – | – | 16 | EC50 [1, 6]: 0.81 nM |
| CC(=O)[C@H](CCCCN)NC(=O)CCCCC(=O)NCC(=O)N[C@@H](CCC(=O)N[C@@H](CCC(=O)NCCCCCC(=O)N(CCOC1O[C@H](CO)[C@@H](O)[C@H](O)[C@@H]1O)CCO[C@H]1O[C@H](CO)[C@@H](O)[C@H](O)[C@@H]1O)C(=O)NCCCCCC(=O)N(CCOC1O[C@H](CO)[C@@H](O)[C@H](O)[C@@H]1O)CCOC1O[C@H](CO)[C@@H](O)[C@H](O)[C@@H]1O)C(=O)NCCCCCC(=O)N(CC(=O)NCCO[C@@H]1O[C@@H](C)[C@@H](O)[C@@H](O)[C@@H]1O)CC(=O)NCCO[C@@H]1O[C@@H](C)[C@@H](O)[C@@H](O)[C@@H]1O (stereo partly drawn) [IOC-51] | – | 28.8 | – | – |
| CC(=O)[C@H](CCCCN)NC(=O)CCCCC(=O)NCC(=O)N[C@@H](CCC(=O)N[C@@H](CCC(=O)NCCCCCC(=O)N(CCOC1O[C@H](CO)[C@@H](O)[C@H](O)[C@@H]1O)CCO[C@H]1O[C@H](CO)[C@@H](O)[C@H](O)[C@@H]1O)C(=O)NCCCCCC(=O)N(CCOC1O[C@H](CO)[C@@H](O)[C@H](O)[C@@H]1O)CCOC1O[C@H](CO)[C@@H](O)[C@H](O)[C@@H]1O)C(=O)NCCCCCC(=O)NCCO[C@H]1O[C@H](CO[C@H]2O[C@H](CO)[C@@H](O)[C@H](O)[C@@H]2O)[C@@H](O)[C@H](O[C@H]2O[C@H](CO)[C@@H](O)[C@H](O)[C@@H]2O)[C@@H]1O (stereo partly drawn) [IOC-33] | – | 10 | – | – |
| CC(=O)[C@H](CCCCN)NC(=O)CCCCCNC(=O)[C@H](CCCCNC(=O)CCCC(=O)N[C@@H](CCC(=O)N(CCOC1O[C@H](CO)[C@@H](O)[C@H](O)[C@@H]1O)CCOC1O[C@H](CO)[C@@H](O)[C@H](O)[C@@H]1O)C(=O)N(CCOC1O[C@H](CO)[C@@H](O)[C@H](O)[C@@H]1O)CCOC1O[C@H](CO)[C@@H](O)[C@H](O)[C@@H]1O)NC(=O)[C@H](CCCCNC(=O)CCCC(=O)N[C@@H](CCC(=O)N(CCOC1O[C@H](CO)[C@@H](O)[C@H](O)[C@@H]1O)CCOC1O[C@H](CO)[C@@H](O)[C@H](O)[C@@H]1O)C(=O)N(CCOC1O[C@H](CO)[C@@H](O)[C@H](O)[C@@H]1O)CCOC1O[C@H](CO)[C@@H](O)[C@H](O)[C@@H]1O)NC(=O)CCCC(=O)N[C@@H](CCC(=O)N(CCOC1O[C@H](CO)[C@@H](O)[C@H](O)[C@@H]1O)CCOC1O[C@H](CO)[C@@H](O)[C@H](O)[C@@H]1O)C(=O)N(CCOC1O[C@H](CO)[C@@H](O)[C@H](O)[C@@H]1O)CCOC1O[C@H](CO)[C@@H](O)[C@H](O)[C@@H]1O (stereo partly drawn) [IOC-62] | 2.11 | – | 11.5 | – |
| CC(=O)[C@H](CCCCN)NC(=O)CCCCCNC(=O)[C@H](CCCCNC(=O)CCCCCNC(=O)CN(CC(=O)NCCO[C@@H]1O[C@@H](C)[C@@H](O)[C@@H](O)[C@@H]1O)CC(=O)NCCO[C@@H]1O[C@@H](C)[C@@H](O)[C@@H](O)[C@@H]1O)NC(=O)[C@H](CCCCNC(=O)CCCCCNC(=O)CN(CC(N)=O)CC(=O)NCCO[C@@H]1CC(C)[C@@H](O)[C@@H](O)[C@@H]1O)NC(=O)CCCCCNC(=O)CN(CC(=O)NCCO[C@@H]1O[C@@H](C)[C@@H](O)[C@@H](O)[C@@H]1O)CC(=O)NCCO[C@@H]1O[C@@H](C)[C@@H](O)[C@@H](O)[C@@H]1O (stereo partly drawn) [IOC-41] | – | – | – | IC50 ([2]; MRC1 Binding IP, Method F: 384-well plate): 6.09 nM |
| CC(=O)[C@H](CCCCN)NC(=O)CCCCCNC(=O)[C@H](CCCCNC(=O)CCCCCNC(=O)CN(CC(=O)NCCO[C@H]1O[C@H](CO)[C@@H](O)[C@H](O)[C@@H]1O)CC(=O)NCCO[C@H]1O[C@H](CO[C@H]2O[C@H](CO)[C@@H](O)[C@H](O)[C@@H]2O)[C@@H](O)[C@H](O[C@H]2O[C@H](CO)[C@@H](O)[C@H](O)[C@@H]2O)[C@@H]1O)NC(=O)[C@H](CCCCNC(=O)CCCCCNC(=O)CN(CC(=O)NCCO[C@H]1O[C@H](CO)[C@@H](O)[C@H](O)[C@@H]1O)CC(=O)NCCO[C@H]1O[C@H](CO[C@H]2O[C@H](CO)[C@@H](O)[C@H](O)[C@@H]2O)[C@@H](O)[C@H](O[C@H]2O[C@H](CO)[C@@H](O)[C@H](O)[C@@H]2O)[C@@H]1O)NC(=O)CCCCCNC(=O)CN(CC(=O)NCCO[C@H]1O[C@H](CO)[C@@H](O)[C@H](O)[C@@H]1O)CC(=O)NCCO[C@H]1O[C@H](CO[C@H]2O[C@H](CO)[C@@H](O)[C@H](O)[C@@H]2O)[C@@H](O)[C@H](O[C@H]2O[C@H](CO)[C@@H](O)[C@H](O)[C@@H]2O)[C@@H]1O [IOC-39] | – | – | 2.38 | – |
| CC(=O)[C@H](CCCCN)NC(=O)CCCCC(=O)N[C@@H](CCC(=O)N[C@@H](CCC(=O)NCCO[C@@H]1O[C@@H](C)[C@@H](O)[C@@H](O)[C@@H]1O)C(=O)NCCO[C@@H]1O[C@@H](C)[C@@H](O)[C@@H](O)[C@@H]1O)C(=O)NCCO[C@H]1O[C@H](CO[C@H]2O[C@H](CO)[C@@H](O)[C@H](O)[C@@H]2O)[C@@H](O)[C@H](O[C@H]2O[C@H](CO)[C@@H](O)[C@H](O)[C@@H]2O)[C@@H]1O [IOC-3] | – | – | 42.2 | – |
